Measured values: US12357603B2, “Acyl sulfonamides for treating cancer” (Bayer Aktiengesellschaft, priority 2019, dated 2025)
Read-outs that look alike come from different tables or passages of the source.

What was measured:
[1] = target: Recombinant human His-tagged Kat6a protein (amino acids 194-810) (Homo sapiens (Human), UniProt Q92794); assay: Kat6a activity assay (TR-FRET, acetylation of biotinylated Histone-H4-derived peptide); assay type: biochemical; conditions: 60 mins at 22° C., read-out: KAT6A-DPF/HAT domain IC50 [mol/l] (arithmetic mean)
Procedure, shortened: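 Sf9-expressed human His-Kat6a (aa 194-810) incubated 60 min at 22 °C with compounds (0.01-20 μM) in Tris pH 8 buffer containing 220 nM biotinylated H4 peptide (aa 1-24) and 600 nM acetyl-CoA. Acetyl-K8 detected by TR-FRET (665/620 nm ratio); IC50 by four-parameter fit versus DMSO controls.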

[2] = target: Recombinant human GST-tagged Kat6b protein (431-end) (Homo sapiens, UniProt Q8WYB5); assay: Kat6b activity assay (TR-FRET, acetylation of biotinylated Histone-H4-derived peptide); assay type: biochemical; conditions: 30 mins at 22° C., read-out: KAT6B activity assay IC50 [mol/l] (arithmetic mean)
[3] = system: ESR1 transcription (luciferase signal in MVLN cells); assay: Repression of ESR1 transcription, luciferase reporter in MVLN cells; assay type: cell-based; conditions: inhibition of luciferase signal in MVLN cells, arithmetic mean
Procedure, shortened: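 MVLN cells (constitutive ER, stably carrying a Vitellogenin A2 hormone-responsive element–luciferase reporter) treated in duplicate; luciferase read after 24 h. Cell density checked by Alamar Blue fluorescence (530/590 nm) after 2 h to exclude cell-loss effects.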

ZR-75-1 cells = assay: Proliferation assay ZR-75-1 (Alamar Blue, 144 h); assay type: cell-based; conditions: arithmetic mean, read-out: ZR75-1 proliferation assay, EC50 [M] (arithmetic mean)
Procedure, shortened: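 Cells seeded at 3000/well in RPMI 1640 with 2.5% FBS and treated 24 h later across 2.0×10E-5 to 2.0×10E-9 M (9 dilutions, 0.2% DMSO, triplicate). After 144 h at 37 °C, 5% CO2, viability read by Alamar Blue fluorescence at 590 nm following 2 h reagent incubation.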

MDA-MB-436 cells = assay: Proliferation assay MDA-MB-436, negative control cell line (Alamar Blue, 144 h); assay type: cell-based; conditions: arithmetic mean
Procedure, shortened: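 MDA-MB-436 cells (3000/well, DMEM/Ham's F12 with 2.5% FBS) treated 24 h after plating with compounds at 2.0×10E-5 to 2.0×10E-9 M (9 dilutions, 0.2% DMSO), triplicates, 144 h at 37 °C, 5% CO2. Viability by Alamar Blue, 2 h, fluorescence at 590 nm.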

DMS 53 cells = assay: Proliferation assay DMS 53 (Alamar Blue, 144 h); assay type: cell-based; conditions: Homo sapiens, DMS53, small cell lung cancer, read-out: proliferation assays
Procedure: (§1) Assessment of the Anti-Proliferative Effect of Compounds in Different Cell Lines
(§2) To determine further cancer indications that respond to treatment with KAT6A or KAT6B3 inhibitors various cell lines carrying a KAT6A and/or KAT6B3 focal amplification or high KAT6A and/or KAT6B3 protein expression were used for proliferation assays with selected compounds.
(§3) 24 hours later, cells were treated with compounds (stock solution, 10 mM in DMSO) using the HP D300 Digital Dispenser in a concentration range of 2.0×10E-5 M to 2.0×10E-9 M in a single-dot curve with 9 dilutions and a DMSO concentration of 0.2%. Each sample was prepared as triplicate and rim wells were excluded. Plates were incubated at 37° C. and 5% CO2 for 144 h. Cell viability was measured by adding 10 μL of Alamar Blue Reagent (Invitrogen #DAL 1100) and plates were incubated for 2 h at 37° C. and 5% CO2. Fluorescence was measured at 590 nm wavelength with a Tecan Spark or Victor X3 MTP-Reader (PerkinElmer).

LNCAP cells = assay: Proliferation assay LNCAP (Alamar Blue, 144 h); assay type: cell-based; conditions: Homo sapiens, prostate carcinoma, 10 nM R1881, read-out: proliferation assays
Procedure: as §1, §2, §3

JMSU-1 cells = assay: Proliferation assay JMSU-1 (Alamar Blue, 144 h); assay type: cell-based; conditions: JMSU1, bladder carcinoma, read-out: proliferation assays
Procedure: as §1, §2, §3

THP-1 cells = assay: Proliferation assay THP-1 (Alamar Blue, 144 h); assay type: cell-based; conditions: Homo sapiens, THP1, acute monocytic leukemia, read-out: proliferation assays
Procedure: as §1, §2, §3

EFM-19 cells = assay: Proliferation assay EFM-19 (Alamar Blue, 144 h); assay type: cell-based; conditions: Homo sapiens, EFM19, breast carcinoma, read-out: proliferation assays
Procedure: as §1, §2, §3

COLO 684 cells = assay: Proliferation assay COLO 684 (Alamar Blue, 144 h); assay type: cell-based; conditions: Homo sapiens, COLO684, uterus adenocarcinoma, read-out: proliferation assays
Procedure: as §1, §2, §3

[4] = target: Recombinant human GST-tagged Kat6b protein (431-end); assay: Kat6b activity assay (TR-FRET, acetylation of biotinylated Histone-H4-derived peptide); assay type: biochemical; conditions: 30 mins at 22° C., read-out: KAT6B activity assay IC50 [mol/l] (arithmetic mean)
LCLC-97TM1 cells = assay: Proliferation assay LCLC-97TM1 (Alamar Blue, 144 h); assay type: cell-based; conditions: Homo sapiens, LCLC97TM1, large cell lung carcinoma, read-out: proliferation assays
Procedure: as §1, §2, §3

DMS 114 cells = assay: Proliferation assay DMS 114 (Alamar Blue, 144 h); assay type: cell-based; conditions: Homo sapiens, DMS114, small cell lung cancer, read-out: proliferation assays
Procedure: as §1, §2, §3

CAMA-1 cells = assay: Proliferation assay CAMA-1 (Alamar Blue, 144 h); assay type: cell-based; conditions: Homo sapiens, CAMA1, breast adenocarcinoma, read-out: proliferation assays
Procedure: as §1, §2, §3

T47D cells = assay: Proliferation assay T47D (Alamar Blue, 144 h); assay type: cell-based; conditions: Homo sapiens, breast ductal carcinoma, read-out: proliferation assays
Procedure: as §1, §2, §3

[5] = Homo sapiens, MDA-MB-436, 144 h

Chain of Recombinant human GST-tagged Kat6b protein (431-end) (Homo sapiens, UniProt Q8WYB5) (Q8WYB5 whole entry, looked up): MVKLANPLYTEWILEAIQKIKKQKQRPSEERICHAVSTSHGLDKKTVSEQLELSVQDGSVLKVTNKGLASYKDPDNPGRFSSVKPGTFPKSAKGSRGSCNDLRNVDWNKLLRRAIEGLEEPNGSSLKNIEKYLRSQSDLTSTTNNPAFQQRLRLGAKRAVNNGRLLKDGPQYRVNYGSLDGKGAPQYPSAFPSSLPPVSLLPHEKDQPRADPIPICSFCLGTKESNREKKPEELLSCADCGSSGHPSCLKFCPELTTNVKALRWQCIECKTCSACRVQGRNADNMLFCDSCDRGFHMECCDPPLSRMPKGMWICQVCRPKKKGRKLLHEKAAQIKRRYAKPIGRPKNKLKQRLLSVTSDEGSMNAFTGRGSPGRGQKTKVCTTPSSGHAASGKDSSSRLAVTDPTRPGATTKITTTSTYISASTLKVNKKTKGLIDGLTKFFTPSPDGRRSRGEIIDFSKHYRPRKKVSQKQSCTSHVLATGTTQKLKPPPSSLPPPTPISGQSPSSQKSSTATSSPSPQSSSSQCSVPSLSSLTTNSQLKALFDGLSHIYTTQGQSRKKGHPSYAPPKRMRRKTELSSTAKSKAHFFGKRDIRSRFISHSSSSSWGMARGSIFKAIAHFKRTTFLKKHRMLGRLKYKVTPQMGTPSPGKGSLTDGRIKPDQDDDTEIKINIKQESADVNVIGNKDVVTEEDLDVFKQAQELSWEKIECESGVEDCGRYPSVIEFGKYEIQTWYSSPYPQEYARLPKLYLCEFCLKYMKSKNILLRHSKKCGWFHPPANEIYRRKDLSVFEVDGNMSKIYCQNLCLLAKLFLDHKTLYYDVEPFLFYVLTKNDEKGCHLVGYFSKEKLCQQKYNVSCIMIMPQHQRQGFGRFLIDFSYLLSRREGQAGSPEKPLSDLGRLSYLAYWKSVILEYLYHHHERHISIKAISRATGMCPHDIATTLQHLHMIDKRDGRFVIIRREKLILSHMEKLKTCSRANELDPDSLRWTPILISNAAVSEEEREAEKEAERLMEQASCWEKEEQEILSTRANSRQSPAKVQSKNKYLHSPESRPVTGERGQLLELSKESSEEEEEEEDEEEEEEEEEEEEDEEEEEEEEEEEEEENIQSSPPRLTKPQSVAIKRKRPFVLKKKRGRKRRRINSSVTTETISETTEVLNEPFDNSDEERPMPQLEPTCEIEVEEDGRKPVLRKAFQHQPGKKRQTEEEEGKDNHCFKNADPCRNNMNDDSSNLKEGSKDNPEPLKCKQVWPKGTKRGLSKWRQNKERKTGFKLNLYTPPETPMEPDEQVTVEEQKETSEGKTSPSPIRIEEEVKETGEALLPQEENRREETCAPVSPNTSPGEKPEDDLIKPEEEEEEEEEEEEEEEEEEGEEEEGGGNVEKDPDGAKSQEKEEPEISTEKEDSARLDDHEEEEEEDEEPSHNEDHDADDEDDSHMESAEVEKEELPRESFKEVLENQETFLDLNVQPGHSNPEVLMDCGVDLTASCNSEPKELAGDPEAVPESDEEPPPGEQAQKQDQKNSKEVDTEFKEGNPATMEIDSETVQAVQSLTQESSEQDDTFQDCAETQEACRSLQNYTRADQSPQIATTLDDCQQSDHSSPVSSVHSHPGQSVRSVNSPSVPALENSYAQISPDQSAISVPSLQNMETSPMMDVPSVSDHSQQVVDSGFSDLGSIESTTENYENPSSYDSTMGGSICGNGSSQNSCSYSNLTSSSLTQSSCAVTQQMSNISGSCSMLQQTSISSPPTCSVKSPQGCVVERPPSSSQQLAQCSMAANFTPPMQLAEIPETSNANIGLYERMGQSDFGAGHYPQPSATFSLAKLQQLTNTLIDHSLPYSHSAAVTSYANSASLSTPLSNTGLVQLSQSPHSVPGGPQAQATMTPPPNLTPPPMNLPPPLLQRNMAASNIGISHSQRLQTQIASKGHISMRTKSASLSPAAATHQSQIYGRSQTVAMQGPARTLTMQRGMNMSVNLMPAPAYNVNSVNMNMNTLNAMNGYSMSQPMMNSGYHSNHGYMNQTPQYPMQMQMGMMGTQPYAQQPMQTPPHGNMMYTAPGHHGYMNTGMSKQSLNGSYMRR
Chain of Recombinant human His-tagged Kat6a protein (amino acids 194-810) (Q92794 194-810): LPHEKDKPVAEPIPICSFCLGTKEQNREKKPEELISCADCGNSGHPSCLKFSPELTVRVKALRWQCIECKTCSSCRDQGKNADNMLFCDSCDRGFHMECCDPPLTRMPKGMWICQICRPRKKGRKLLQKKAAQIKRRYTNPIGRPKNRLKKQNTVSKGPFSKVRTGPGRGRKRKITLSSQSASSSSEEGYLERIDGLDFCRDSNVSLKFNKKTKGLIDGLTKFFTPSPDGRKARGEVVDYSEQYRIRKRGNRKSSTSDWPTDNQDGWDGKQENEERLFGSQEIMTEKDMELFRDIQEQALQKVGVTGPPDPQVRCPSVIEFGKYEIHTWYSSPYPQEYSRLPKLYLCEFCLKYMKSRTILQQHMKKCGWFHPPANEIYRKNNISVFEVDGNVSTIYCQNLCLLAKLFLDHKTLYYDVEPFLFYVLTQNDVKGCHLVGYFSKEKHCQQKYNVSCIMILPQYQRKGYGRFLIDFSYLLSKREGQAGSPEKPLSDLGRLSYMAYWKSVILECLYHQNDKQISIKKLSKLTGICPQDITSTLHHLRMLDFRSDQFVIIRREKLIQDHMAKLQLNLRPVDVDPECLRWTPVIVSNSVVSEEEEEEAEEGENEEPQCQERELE

Row | IC50 [1] | IC50 ([3]; Homo sapiens, MVLN) | EC50 (MDA-MB-436 cells; [5]) | IC50 [4] | SMILES | EC50 (ZR-75-1 cells; Homo sapiens, ZR-75-1, 144 h) | further results
1 | 8.47 nM | 23.6 nM | > 20 µM | – | CC(C)c1ccc(OCC2CC2(F)F)c(S(=O)(=O)NC(=O)c2cc3ccc(N(C)C)cc3o2)c1 (racemic) [Example 186, N-((2-((2,2-difluorocyclopropyl)methoxy)-5-isopropylphenyl)sulfonyl)-6-(dimethylamino)benzofuran-2-carboxamide (rac)] | 5.59e-08 M | IC50 [2]: 26.1 nM
2 | – | 121 nM | 18.4 µM | – | CN(C)c1ccc2cc(C(=O)NS(=O)(=O)c3ccccc3-c3ccccc3)oc2c1 [Example 14, N-([1,1′-Biphenyl]-2-sulfonyl)-6-(dimethylamino)-1-benzofuran-2-carboxamide] | – | EC50 (ZR-75-1 cells): 1.2e-07 M; EC50 (DMS 53 cells): 490 nM; EC50 (LNCAP cells): 4.16 µM; EC50 (JMSU-1 cells): 605 nM; EC50 (THP-1 cells): 238 nM; EC50 (EFM-19 cells): 223 nM; EC50 (COLO 684 cells): 184 nM
3 | 84.6 nM | – | – | 66.9 nM | CCOc1ccccc1S(=O)(=O)NC(=O)c1cc2ccc(N(C)C)cc2o1 [Example 19, 6-(Dimethylamino)-N-(2-ethoxybenzene-1-sulfonyl)-1-benzofuran-2-carboxamide] | – | IC50 [3]: 42.2 nM; EC50 (ZR-75-1 cells): 5.96e-08 M; EC50 (MDA-MB-436 cells): > 20 µM; EC50 (LCLC-97TM1 cells): 447 nM; EC50 (DMS 53 cells): 130 nM; EC50 (DMS 114 cells): 136 nM; EC50 (LNCAP cells): 1.63 µM; EC50 (JMSU-1 cells): 70.6 nM; EC50 (THP-1 cells): 95.8 nM; EC50 (CAMA-1 cells): 268 nM; EC50 (T47D cells): 170 nM; EC50 (EFM-19 cells): 105 nM; EC50 (COLO 684 cells): 156 nM
4 | 79.3 nM | 98 nM | > 20 µM | 99.2 nM | CCCOc1ccccc1S(=O)(=O)NC(=O)c1cc2ccc(N(C)C)cc2o1 [Example 23, 6-(Dimethylamino)-N-(2-propoxybenzene-1-sulfonyl)-1-benzofuran-2-carboxamide] | 2.34e-08 M | EC50 (LCLC-97TM1 cells): 157 nM; EC50 (DMS 53 cells): 367 nM; EC50 (DMS 114 cells): 205 nM; EC50 (LNCAP cells): > 20 µM; EC50 (CAMA-1 cells): 415 nM; EC50 (T47D cells): 197 nM; EC50 (EFM-19 cells): 155 nM; EC50 (COLO 684 cells): 92.9 nM
5 | 30.7 nM | – | – | – | CN(C)c1ccc2cc(C(=O)NS(=O)(=O)c3cccc4c3OC(F)(F)C(F)(F)O4)oc2c1 [Example 134, 6-(Dimethylamino)-N-(2,2,3,3-tetrafluoro-2,3-dihydro-1,4-benzodioxine-5-sulfonyl)-1-benzofuran-2-carboxamide] | – | IC50 [2]: 25.9 nM; IC50 [3]: 76.8 nM; EC50 (ZR-75-1 cells): 1.26e-07 M; EC50 (MDA-MB-436 cells): > 20 µM
6 | 2.63 nM | 15.1 nM | > 20 µM | 13.9 nM | COc1ccc(C(C)(C)C)cc1S(=O)(=O)NC(=O)c1cc2ccc(N(C)C)cc2o1 [Example 185, N-((5-(tert-butyl)-2-methoxyphenyl)sulfonyl)-6-(dimethylamino)benzofuran-2-carboxamide] | 1.69e-08 M | –
7 | 7.14 nM | 1690 nM | > 20 µM | 12.8 nM | CN(C)c1cc(C(F)(F)F)c2cc(C(=O)NS(=O)(=O)c3ccccc3-c3ccccc3)oc2c1 [Example 193, N-([1,1′-biphenyl]-2-ylsulfonyl)-6-(dimethylamino)-4-(trifluoromethyl)benzofuran-2-carboxamide] | 6.55e-06 M | –
8 | 5.73 nM | 716 nM | > 20 µM | 14.7 nM | CCOc1ccccc1S(=O)(=O)NC(=O)c1cc2c(C(F)(F)F)cc(N(C)C)cc2o1 [Example 195, 6-(Dimethylamino)-N-((2-ethoxyphenyl)sulfonyl)-4-(trifluoromethyl)benzofuran-2-carboxamide] | 8.71e-07 M | –
9 | 1.47 nM | 295 nM | > 14.1 µM | 1.78 nM | Cc1ccc2cccc(S(=O)(=O)NC(=O)c3cc4c(C(F)(F)F)cc(N(C)C)cc4o3)c2n1 [Example 196, 6-(Dimethylamino)-N-((2-methylquinolin-8-yl)sulfonyl)-4-(trifluoromethyl)benzofuran-2-carboxamide] | 2.12e-06 M | –
10 | 1970 nM | > 20000 nM | > 20 µM | 3010 nM | CN(C)c1ccc2cc(C(=O)NS(=O)(=O)c3ccccc3-c3ccccc3)oc2c1C(F)(F)F [Example 202, N-([1,1′-biphenyl]-2-sulfonyl)-6-(dimethylamino)-7-(trifluoromethyl)-1-benzofuran-2-carboxamide] | > 2e-05 M | –
11 | 106 nM | 80.2 nM | > 20 µM | 99.1 nM | CCOc1ccccc1S(=O)(=O)NC(=O)c1cc2ccc(N(C)C)cc2o1 [Example 223] | 5.87e-08 M | –
12 | 58.3 nM | 31.4 nM | > 20 µM | 76.4 nM | CC(C)Oc1ccccc1S(=O)(=O)NC(=O)c1cc2ccc(N(C)C)cc2o1 [Example 224] | 5.24e-08 M | –
13 | 22.7 nM | 36.2 nM | > 20 µM | 25.8 nM | Cc1ccc2cccc(S(=O)(=O)NC(=O)c3cc4ccc(N(C)C)cc4o3)c2n1 [Example 225] | 7.21e-08 M | –

Row | SMILES | IC50 [1] | IC50 ([3]; Homo sapiens, MVLN) | EC50 (MDA-MB-436 cells; [5]) | IC50 [4] | EC50 (ZR-75-1 cells; Homo sapiens, ZR-75-1, 144 h) | further results
14 | CC(C)c1ccc(OC2CCC2)c(S(=O)(=O)NC(=O)c2cc3ccc(N(C)C)cc3o2)c1 [Example 184, N-((2-Cyclobutoxy-5-isopropylphenyl)sulfonyl)-6-(dimethylamino)benzofuran-2-carboxamide] | 15.9 nM | 22.5 nM | > 20 µM | – | 6.98e-07 M | IC50 [2]: 47.8 nM
